Literature values as cited in patent publication US4996231A, “Triyne cyclic carbonates” (Merck & Co., Inc., priority 1989, dated 1991).

What was measured:
[1] = system: certain bacterial strains
cytosolic β-ketothiolase = details: initial enzyme of cholesterol biosynthesis

SMILES: C#CC#CC#CC(O)C1OC(=O)OC1CCCCCCC(=O)O (stereo not shown) [triyne carbonate A, 5-(1-hydroxy-2,4,6-heptatriynyl)-2-oxo-1,3 dioxolane 4heptanoic acid]
- active against certain fungal strains (certain fungal strains): active against certain fungal and bacterial strains
- instability of the compound in vivo: relative instability
- active against certain bacterial strains [1]: active against certain fungal and bacterial strains
- inhibitor of cytosolic β-ketothiolase (cytosolic β-ketothiolase): potent inhibitor
